Laboratory results published in patent publication US20230103142A1, “SMALL MOLECULE REGULATORS OF NOTCH1 AND USES THEREOF” (THE PENN STATE RESEARCH FOUNDATION, priority 2020, published 2023).
Residues, ends and D or L forms follow the SMILES beside them. *: point of attachment. Cbz = O=C(OCc1ccccc1)*

Key:
HT1376 cells [1] = assay: MTT cell viability assay; type: cell-based
Procedure: (§1) Cell culture and viability assay. […] Cell lines were maintained in Eagle's Minimum Essential Medium at 37° C. and 5% CO2. […] TCCSUP and HT1376 cells were treated with varying concentrations of ASR488 (0.2-12.5 μM) for 24, 48, and 72 h.

TCCSUP cells [2] = assay: MTT cell viability assay; type: cell-based
Procedure: as §1

HT1376 cells [3] = assay: Annexin V-FITC/PI apoptosis flow cytometry; type: cell-based; conditions: HT1376, 24 h treatment
Procedure: (§2) Detection of apoptosis by flow cytometry and immunoblotting. Annexin V-fluorescein isothiocyanate (FITC) against propidium iodide (PI) assay (FITC Annexin V Apoptosis Detection Kit I, BD Pharminogen, San Diego, Calif., USA) was used for detecting apoptosis as described previously. Total protein extracts from TCCSUP cells were prepared with the Mammalian Protein Extraction Reagent (Thermo Scientific, Rockford, Ill., USA) according to the manufacturer's instructions. Western blotting was performed using specific antibodies against Cleaved PARP (Cat #5625), BAX (Cat #5023) (Cell signaling Technology), and β-actin (Santa Cruz Biotechnologies, Dallas, Tex., USA). The positive bands were detected using enhanced chemiluminescence.

TCCSUP cells [4] = assay: Annexin V-FITC/PI apoptosis flow cytometry; type: cell-based; conditions: 24 h treatment
Procedure: as §2

TCCSUP cells [5] = assay: RNA-seq differential gene expression analysis; type: cell-based
Source text: RNA isolation, cDNA library construction, and DNA sequencing. TCCSUP cells treated with vehicle (DMSO) or ASR488 were subjected to RNA isolation using TRIzol® (Invitrogen; Thermo Fisher Scientific, Inc., Waltham, Mass., USA) according to the manufacturer's protocol. Nano Photometer® spectrophotometer (Implen, Inc., Westlake Village, Calif., USA) was used to measure the RNA concentration and purity of the samples. A cDNA library was then constructed using an NEB Next® Ultra™ RNA Library Prep kit for Illumina® (New England Biolabs, Inc., Ipswich, Mass., USA) by Novogene Bioinformatics Technologies Co. Ltd. (Beijing, China) following the manufacturer's protocols. Subsequently, polymerase chain reaction (PCR) was, Universal PCR primers, and Index (X) Primer for double-stranded cDNA amplification. The PCR products generated for PCR performed using Phusion High Fidelity DNA polymerase were purified using the AMPure XP system, and Agilent Bioanalyzer 2100 system was used to analyze the library quality. The cDNA library was sequenced using an Illumina Hiseq 2000/2500 platform and 100 bp/50 bp single-end reads were generated.
Data Analysis. Bioinformatics analysis was performed using a combination of programs including STAR, HTseq, Cufflink, and our wrapped scripts. Tophat program was used to parse the alignments and DESeq2/edgeR was utilized to ascertain differential expressions. To determine GO and KEGG enrichment Cluster Profiler was used.
For DESeq2 with biological replicates: DESeq2 R package (2_1.6.3) was used to analyze differential expression between the ASR488 treated and control groups (two biological replicates per condition). The p-values obtained from the analysis were adjusted using the Benjamini and Hochberg's approach so that the false discovery rate (FDR) can be controlled. The genes having adjusted p-value <0.05 were assigned as differentially expressed.
For edge R without biological replicates: EdgeR program package (3.16.5) was used to adjust the read counts for each sequenced library before differential gene expression analysis, through one scaling normalized factor. The p-values were adjusted using the Benjamini and Hochberg method. […] The Venn diagrams were prepared using the function Venn diagram in R based on the gene list for different groups.

TCCSUP cells [6] = assay: qRT-PCR of top upregulated genes; type: cell-based; conditions: vs vehicle (DMSO)
Source text: The blue dots represent the genes that are without any significant diversity. […] The sum of the numbers in each large circle are the total number of genes in ASR488-treated or vehicle-treated TCCSUP cells, and the common genes among the samples are represented in the overlapping part.

CPEB1 = CPEB1 (Homo sapiens, UniProt Q9BZB8); assay: scanning fluorimetry with purified CPEB1 protein; type: binding
Source text: (FIG. 9B) ASR488 treatment induces p53 independent p27 upregulation in Bladder Cancer cells. (FIG. 9C) The result is GO/G1 cell cycle arrest in ASR488 treated Bladder Cancer Cells. (FIG. 9D) p27 upregulation is due to CPEB1 induction by overexpressing CPEB1 in TCCSUP cells.

normal BCa cells = assay: toxicity to normal cells; type: cell-based
[7] = system: CPEB1 knockdown TCCSUP cells; assay: cell death in CPEB1 siRNA knockdown cells; type: cell-based
Source text: To analyze whether ASR488 treatment can induce p27 mediated cell death in CPEB1 knockdown bladder cancer cells, we knocked down CPEB1 with SiRNA in TCCSUP cells. (FIG. 11A) ASR488 treatment was unable to restore CPEB1 expression in CPEB1 knockdown cells. Moreover, P27 expression corresponded with CPEB1 expression pattern in the Knockdown cells.

MDA-MB-231 TNBC cells = assay: cell viability assay; type: cell-based; conditions: 1/20th of IC50 of DOX alone
Procedure: Synergistic effects of combinations were calculated via isobologram analysis.

[8] = system: Notch 1 activation in MDA-MB-231 TNBC cells; assay: Western blot of NICD and HES1; type: cell-based; conditions: vs vehicle treated controls
ubiquitin in ALDH+ cells = assay: ubiquitin expression; type: cell-based
Source text: Commercially available positive and negative controls were used for these experiments.

CPEB1, sequence (Q9BZB8 whole entry): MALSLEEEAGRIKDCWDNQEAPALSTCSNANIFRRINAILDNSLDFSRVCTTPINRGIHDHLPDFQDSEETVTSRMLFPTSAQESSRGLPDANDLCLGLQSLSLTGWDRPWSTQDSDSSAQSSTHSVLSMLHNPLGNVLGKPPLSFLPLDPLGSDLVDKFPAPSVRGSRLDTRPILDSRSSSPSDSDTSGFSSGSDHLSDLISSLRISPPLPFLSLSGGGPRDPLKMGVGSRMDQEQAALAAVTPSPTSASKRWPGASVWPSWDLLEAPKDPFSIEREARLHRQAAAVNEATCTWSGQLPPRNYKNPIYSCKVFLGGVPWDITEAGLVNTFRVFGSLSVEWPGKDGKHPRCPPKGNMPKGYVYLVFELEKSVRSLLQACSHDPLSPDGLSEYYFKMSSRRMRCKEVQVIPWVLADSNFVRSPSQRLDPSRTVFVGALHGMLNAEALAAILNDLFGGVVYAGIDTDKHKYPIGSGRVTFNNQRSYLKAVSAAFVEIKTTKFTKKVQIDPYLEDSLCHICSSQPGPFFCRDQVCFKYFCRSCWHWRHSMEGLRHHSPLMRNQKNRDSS

Q: `CC1=C(CO)C(=O)O[C@@H]([C@@H](C)[C@H]2CC[C@H]3[C@@H]4C[C@H]5O[C@]56[C@@H](OC(=O)c5cccs5)C=CC(=O)[C@]6(C)[C@H]4CC[C@]23C)C1` [ASR488] was tested. Which IC50 (HT1376 cells [1]; HT1376, 24 h) did it give?
A: 1280 nM

Q: And the IC50 (HT1376 cells [1]; HT1376, 48 h)?
A: 750 nM

Q: And the IC50 (HT1376 cells [1]; HT1376, 72 h)?
A: 850 nM

Q: And the IC50 (TCCSUP cells [2]; 24 h)?
A: 800 nM

Q: What about the IC50 (TCCSUP cells [2]; 48 h) of the same compound?
A: 480 nM

Q: What about the IC50 (TCCSUP cells [2]; 72 h) of the same compound?
A: 450 nM

Q: And the apoptosis (HT1376 cells [3])?
A: 23.2%

Q: What about the apoptosis (TCCSUP cells [4]) of the same compound?
A: 30.5%

Q: What about the “Log2 (fold-change) ACTG2” value (TCCSUP cells [5]; gene ACTG2, treated TCCSUP cells) of the same compound?
A: 3.0293

Q: What about the “Log2 (fold-change) BBOX1” value (TCCSUP cells [5]; gene BBOX1, treated TCCSUP cells) of the same compound?
A: −2.2384

Q: What about the “Log2 (fold-change) CMPK2” value (TCCSUP cells [5]; gene CMPK2, treated TCCSUP cells) of the same compound?
A: −1.8470

Q: And the “Log2 (fold-change) CPEB1” value (TCCSUP cells [5]; gene CPEB1, treated TCCSUP cells)?
A: 6.3347

Q: And the “Log2 (fold-change) CYP4F11” value (TCCSUP cells [5]; gene CYP4F11, treated TCCSUP cells)?
A: 8.3568

Q: What about the “Log2 (fold-change) DDX60” value (TCCSUP cells [5]; gene DDX60, treated TCCSUP cells) of the same compound?
A: −2.5069

Q: And the “Log2 (fold-change) FOS” value (TCCSUP cells [5]; gene FOS, treated TCCSUP cells)?
A: −1.9465

Q: What about the “Log2 (fold-change) GBP4” value (TCCSUP cells [5]; gene GBP4, treated TCCSUP cells) of the same compound?
A: −2.2704

Q: What about the “Log2 (fold-change) GNGT2” value (TCCSUP cells [5]; gene GNGT2, treated TCCSUP cells) of the same compound?
A: 2.5802

Q: What about the “Log2 (fold-change) HSPA6” value (TCCSUP cells [5]; gene HSPA6, treated TCCSUP cells) of the same compound?
A: 3.5985

Q: What about the “Log2 (fold-change) IFI44L” value (TCCSUP cells [5]; gene IFI44L, treated TCCSUP cells) of the same compound?
A: −1.9791

Q: What about the “Log2 (fold-change) IFIT2” value (TCCSUP cells [5]; gene IFIT2, treated TCCSUP cells) of the same compound?
A: −1.8473

Q: What about the “Log2 (fold-change) IL11” value (TCCSUP cells [5]; gene IL11, treated TCCSUP cells) of the same compound?
A: 2.9265

Q: And the “Log2 (fold-change) MAP1A” value (TCCSUP cells [5]; gene MAP1A, treated TCCSUP cells)?
A: 2.1205

Q: And the “Log2 (fold-change) OASL” value (TCCSUP cells [5]; gene OASL, treated TCCSUP cells)?
A: −1.9737

Q: And the “Log2 (fold-change) RSAD2” value (TCCSUP cells [5]; gene RSAD2, treated TCCSUP cells)?
A: −2.2235

Q: What about the “Log2 (fold-change) SFN” value (TCCSUP cells [5]; gene SFN, treated TCCSUP cells) of the same compound?
A: 3.7239

Q: And the “Log2 (fold-change) SPHK1” value (TCCSUP cells [5]; gene SPHK1, treated TCCSUP cells)?
A: 4.6389

Q: And the “Log2 (fold-change) STEAP4” value (TCCSUP cells [5]; gene STEAP4, treated TCCSUP cells)?
A: −1.8141

Q: And the “Log2 (fold-change) TAGLN” value (TCCSUP cells [5]; gene TAGLN, treated TCCSUP cells)?
A: 2.3661

Q: And the “CPEB1 upregulation by qRT-PCR” value (TCCSUP cells [6])?
A: 36 fold

Q: And the “CYP4F11 upregulation by qRT-PCR” value (TCCSUP cells [6])?
A: 15.8 fold

Q: And the “IL11 upregulation by qRT-PCR” value (TCCSUP cells [6])?
A: 30 fold

Q: What about the “SFN upregulation by qRT-PCR” value (TCCSUP cells [6]) of the same compound?
A: 20.12 fold

Q: And the “change of Tm of bound CPEB1” value (CPEB1)?
A: 9 °C

Q: What about the “toxicity to normal cells” value (normal BCa cells) of the same compound?
A: non-toxic

Q: And the “cell death in CPEB1 knockdown cells” value [7]?
A: did not induced cell death

Q: Which growth inhibition alone (MDA-MB-231 TNBC cells) does the source give for `COc1cccc2c1C(=O)c1c(O)c3c(c(O)c1C2=O)C[C@@](O)(C(=O)CO)C[C@@H]3O[C@H]1C[C@H](N)[C@H](O)[C@H](C)O1` [DOX, Doxorubicin, reference compound] here?
A: did not inhibit the growth

Q: What about the “Notch 1 activation (NICD and HES 1 levels)” value [8] of the same compound?
A: induction of Notch 1 activation

Q: Which ubiquitin expression (ubiquitin in ALDH+ cells) does the source give for `CC(C)C[C@@H](C=O)NC(=O)[C@H](CC(C)C)NC(=O)[C@H](CC(C)C)NC(=O)OCc1ccccc1` [MG-132, reference compound] (Cbz-Leu-Leu-Leu-aldehyde) here?
A: higher level of ubiquitin
